# Values of other authors in patent US20250057824A1, “NOSE-TO-BRAIN DELIVERY FORMULATION OF NIMODIPINE, PREPARATION AND USE” (Nasal-Phyto (Shanghai) Pharmaceutical Technology Co., Ltd., priority 2023, published 2025).
compound,measurement,value
COCCOC(=O)C1=C(C)NC(C)=C(C(=O)OC(C)C)C1c1cccc([N+](=O)[O-])c1 (stereo not shown) [Nimodipine],solubility in water,2 µg/mL
